Patent US12168781B2, “Production method for T cells or NK cells, medium for culturing T cells or NK cells, method for culturing T cells or NK cells, method for maintaining undifferentiated state of undifferentiated T cells, and growth-accelerating agent for T cells or NK cells” (KIRIN HOLDINGS KABUSHIKI KAISHA, priority 2018, dated 2024)

Assays:
[1] = tested on: CD8beta(+)CD8alpha(+) T cells; test: Long-term culturing of T cells obtained by feeder-free differentiation induction, trypan blue count; assay type: cell-based, human; conditions: 1 μM, FIG. 14(B)
Procedure: The possibility of long-term culturing of T-iPS-T cells using berbamine was evaluated. First, T cells were induced from T-iPS cells without using a feeder. For the maintenance of iPS cells, StemFit AK02N medium (Ajinomo) was used for feeder-free iPS cells. The iPS cells were detached from the culture surface coated with iMatrix-511 using a dissociation agent [1× TrypLE Select (Thermo Fisher Scientific) was diluted to 1/2 with PBS, and a 0.5 mol/L EDTA solution (pH 8, Nacalai Tesque) was added thereto to give a final concentration of 0.5× TrypLE Select and 0.75 mM EDTA], and subcultured in a culture medium obtained by adding 10 μM Y-27632 to StemFit AK02N (37° C., 5% CO2). On the following day, the culture medium was replaced with Stemfit AK02N. This operation was repeated once a week to maintain the iPS cells.
Hematopoietic progenitor cells (HPCs) were produced by inducing the differentiation of iPS cells by an embryoid body formation method. The feeder-free iPS cells were detached with 0.5× TrypLE Select, and 0.75 mM EDTA, and then seeded at 2 to 3×10^5 cells/well in a 6-well plate (CORNING) subjected to an ultra-low adhesion treatment. By using Stemfit AK02N medium supplemented with 10 μM Y-27632 (Nacalai Tesque) and 10 μM CHIR99021 (Tocris Bioscience), the cells were cultured under low oxygen conditions (5% 02) (Day 0). […]

NK cells = test: Proliferation of NK cells purified from PBMCs, trypan blue count; assay type: cell-based, human; conditions: 1 μM, 14 days, NK cells of 3 donors, FIG. 20(C)
Source text: The effect of berbamine on NK cells was examined. As a method therefor, NK cells were purified from PBMCs (CTL, Inc.) derived from 3 healthy donor subjects using NK Cell Isolation Kit, human (Miltenyi, 130-092-657).
The NK cells before and after purification were washed with a staining solution (PBS containing 2% FBS) and then stained with CD56-FITC (BioLegend, 362546) and CD3-APC-Cy7 (BioLegend, 300318).
After washing, the cells were resuspended in the staining solution containing propidium iodide and measured using a BD FACSCanto II Flow Cytometer (BD Bioscience). The ratios of CD3(−) and CD56(+) cells in the PI-negative cell population analyzed by FlowJo 10 were confirmed.
As shown in FIG. 20(B), the ratios of CD3(−) and CD56(+) cells showing NK cells were 90% or more, which were sufficient. The purified NK cells (37,000 cells/well) were seeded, and cultured using MEM Alpha medium (Gibco, 12571-063) supplemented with 15% FBS (Biological Industries, 04-001-1A), L-Ascorbic Acid 2-Phosphate Sesquimagnesium Salt Hydrate (L-asc-2P, 50 μg/mL, nacalai tesque, 13570-66), ITS-G, IL-7 (10 ng/mL), and IL-15 (5 ng/mL).
To the culture medium, berbamine (BBM) at 1 μM or MilliQ water that is a solvent for the compound as a control was added, and after culturing for 14 days, the number of viable cells was counted by a trypan blue method.

COc1cc2c3cc1Oc1c(OC)c(OC)cc4c1[C@@H](Cc1ccc(O)c(c1)Oc1ccc(cc1)C[C@@H]3N(C)CC2)N(C)CC4 [berbamine]
period for which the cells could be cultured ([1]; restimulated on day 14, 28, 42, MilliQ water control could not be cultured after day 42): 56 days | proliferation of the cells in long-term culturing ([1]; vs MilliQ water): enhancement of the proliferation of T-iPS-T cells | number of NK cells compared with MilliQ water (NK cells): increase in the number of NK cells
